Results from patent US12310975B2, “Modulators of BCL6 proteolysis and associated methods of use” (Arvinas Operations, Inc., priority 2019, dated 2025).

How the values were obtained:
[1] = biological target: T1, BCL6 (Homo sapiens (Human), UniProt P41182); experiment: BCL6 TR-FRET assay (BCL6-Avitag-Biotin / BCoR-Cy5 peptide); format: binding
Outline: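 TR-FRET displacement assay: biotinylated His-SUMO-BCL6-Avitag (2 nM) pre-incubated 30 min at room temperature with compound (12-point 3-fold titration), then BCoR-Cy5 peptide (100 nM) and Eu-streptavidin (2 nM) added. Buffer: 50 mM HEPES pH 7.5, 125 mM NaCl, 0.01% Triton X, glutathione or DTT, 0.03% BSA. Read after 2 h.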

[2] = biological target: T1, BCL6; experiment: Immunofluorescence high content imaging of BCL6 degradation in T47D cells; format: cell-based; conditions: for Dmax: T47D
Outline: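 BCL6 loss was quantified by high-content imaging (10×, 4 fields/well) after PFA fixation and anti-BCL6/Alexa-488 staining with Hoechst nuclear and CellMask counterstains. Compounds were applied for 3 days to T47D breast cancer cells in RPMI-10% FBS, 11 points, 3-fold steps, top 0.1 or 1 μM.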

Row | EC50 [1] [nM] | IC50 [2] [nM] | Dmax [2] [%] | Structure (SMILES)
1 | > 100 | 10 to 50 | < 50 | CNC(=O)COc1cc2cc(Nc3nc(N4CCN(CC5CCN(c6ccc(C(=O)NC7CCC(=O)NC7=O)nc6)CC5)CC4)ncc3Cl)ccc2n(C)c1=O (stereo not shown) [compound 232, 5-(4-((4-(5-chloro-4-((1-methyl-3-(2-(methylamino)-2-oxoethoxy)-2-oxo-1,2-dihydroquinolin-6-yl)amino)pyrimidin-2-yl)piperazin-1-yl)methyl)piperidin-1-yl)-N-(2,6-dioxopiperidin-3-yl)picolinamide]
2 | > 100 | ≥ 100 | < 50 | CNC(=O)COc1cc2cc(Nc3nc(N4CCN(CC5CCN(c6ccc(C(=O)NC7CCC(=O)NC7=O)c(F)c6)CC5)CC4)ncc3Cl)ccc2n(C)c1=O (stereo not shown) [compound 233, 4-(4-((4-(5-chloro-4-((1-methyl-3-(2-(methylamino)-2-oxoethoxy)-2-oxo-1,2-dihydroquinolin-6-yl)amino)pyrimidin-2-yl)piperazin-1-yl)methyl)piperidin-1-yl)-N-(2,6-dioxopiperidin-3-yl)-2-fluorobenzamide]
3 | < 10 | ≥ 100 |  | CNC(=O)COc1cc2cc(Nc3nc(N4CCN5CCN(c6ccc7c(c6)C(=O)N(C6CCC(=O)NC6=O)C7=O)CC5C4)ncc3Cl)ccc2n(C)c1=O (stereo not shown) [compound 234, 2-((6-((5-chloro-2-(8-(2-(2,6-dioxopiperidin-3-yl)-1,3-dioxoisoindolin-5-yl)octahydro-2H-pyrazino[1,2-a]pyrazin-2-yl)pyrimidin-4-yl)amino)-1-methyl-2-oxo-1,2-dihydroquinolin-3-yl)oxy)-N-methylacetamide]
4 | > 100 | ≥ 100 |  | Cn1c(=O)c(-c2cnoc2)cc2cc(Nc3nc(N4CCC(CN5CCN(c6ccc7c(c6)C(=O)N(C6CCC(=O)NC6=O)C7=O)CC5)CC4)ncc3Cl)ccc21 (stereo not shown) [compound 235, 5-(4-((1-(5-chloro-4-((3-(isoxazol-4-yl)-1-methyl-2-oxo-1,2-dihydroquinolin-6-yl)amino)pyrimidin-2-yl)piperidin-4-yl)methyl)piperazin-1-yl)-2-(2,6-dioxopiperidin-3-yl)isoindoline-1,3-dione]
5 | < 10 | 10 to 50 | 50 to 70 | CC(=O)COc1cc2cc(Nc3nc(N4CCN(CCCN5CCN(c6ccc7c(c6)C(=O)N(C6CCC(=O)NC6=O)C7=O)CC5)CC4)ncc3Cl)ccc2n(C)c1=O (stereo not shown) [compound 236, 5-(4-(3-(4-(5-chloro-4-((1-methyl-2-oxo-3-(2-oxopropoxy)-1,2-dihydroquinolin-6-yl)amino)pyrimidin-2-yl)piperazin-1-yl)propyl)piperazin-1-yl)-2-(2,6-dioxopiperidin-3-yl)isoindoline-1,3-dione]
6 | 10 to 50 | 10 to 50 | < 50 | CNC(=O)COc1cc2cc(Nc3nc(N4CCC[C@H](COc5ccc6c(c5)C(=O)N(C5CCC(=O)NC5=O)C6=O)C4)ncc3Cl)ccc2n(C)c1=O (stereo partly drawn) [compound 237, 2-((6-((5-chloro-2-((3S)-3-(((2-(2,6-dioxopiperidin-3-yl)-1,3-dioxoisoindolin-5-yl)oxy)methyl)piperidin-1-yl)pyrimidin-4-yl)amino)-1-methyl-2-oxo-1,2-dihydroquinolin-3-yl)oxy)-N-methylacetamide]
7 | 10 to 50 | < 10 | ≥ 70 | CNC(=O)COc1cc2cc(Nc3nc(N4CCN(C(C)(C)C5CCN(c6ccc7c(c6)CN(C6CCC(=O)NC6=O)C7=O)CC5)CC4)ncc3Cl)ccc2n(C)c1=O (stereo not shown) [compound 270, 2-{[6-({5-chloro-2-[4-(2-{1-[2-(2,6-dioxopiperidin-3-yl)-1-oxo-2,3-dihydro-1H-isoindol-5-yl]piperidin-4-yl}propan-2-yl)piperazin-1-yl]pyrimidin-4-yl}amino)-1-methyl-2-oxo-1,2-dihydroquinolin-3-yl]oxy}-N-methylacetamide]

The remaining lines, values behind:

Row | Structure (SMILES) | EC50 [1] [nM] | IC50 [2] [nM] | Dmax [2] [%]
8 | CNC(=O)COc1cc2cc(Nc3nc(N4CCN(C5CCN(c6cccc7c6C(=O)N(C6CCC(=O)NC6=O)C7=O)CC5)CC4)ncc3Cl)ccc2n(C)c1=O (stereo not shown) [compound 220, 2-((6-((5-chloro-2-(4-(1-(2-(2,6-dioxopiperidin-3-yl)-1,3-dioxoisoindolin-4-yl)piperidin-4-yl)piperazin-1-yl)pyrimidin-4-yl)amino)-1-methyl-2-oxo-1,2-dihydroquinolin-3-yl)oxy)-N-methylacetamide] | > 100 | < 10 | 50 to 70
9 | CNC(=O)COc1cc2cc(Nc3nc(N4CCC(OC5CCN(c6ccc7c(c6)C(=O)N(C6CCC(=O)NC6=O)C7=O)CC5)CC4)ncc3Cl)ccc2n(C)c1=O (stereo not shown) [compound 221, 2-((6-((5-chloro-2-(4-((1-(2-(2,6-dioxopiperidin-3-yl)-1,3-dioxoisoindolin-5-yl)piperidin-4-yl)oxy)piperidin-1-yl)pyrimidin-4-yl)amino)-1-methyl-2-oxo-1,2-dihydroquinolin-3-yl)oxy)-N-methylacetamide] | > 100 | < 10 | 50 to 70
10 | CNC(=O)COc1cc2cc(Nc3nc(N4CCO[C@@H](COc5ccc6c(c5)C(=O)N(C5CCC(=O)NC5=O)C6=O)C4)ncc3Cl)ccc2n(C)c1=O (stereo partly drawn) [compound 222, 2-((6-((5-chloro-2-((2R)-2-(((2-(2,6-dioxopiperidin-3-yl)-1,3-dioxoisoindolin-5-yl)oxy)methyl)morpholino)pyrimidin-4-yl)amino)-1-methyl-2-oxo-1,2-dihydroquinolin-3-yl)oxy)-N-methylacetamide] | > 100 | 50 to 100 | < 50
11 | Cn1c(=O)c(-n2ccnc2)cc2cc(Nc3nc(N4CCC(CN5CCN(c6ccc7c(c6)C(=O)N(C6CCC(=O)NC6=O)C7=O)CC5)CC4)ncc3Cl)ccc21 (stereo not shown) [compound 224, 5-(4-((1-(4-((3-(1H-imidazol-1-yl)-1-methyl-2-oxo-1,2-dihydroquinolin-6-yl)amino)-5-chloropyrimidin-2-yl)piperidin-4-yl)methyl)piperazin-1-yl)-2-(2,6-dioxopiperidin-3-yl)isoindoline-1,3-dione] | > 100 | ≥ 100 | 
12 | Cn1c(=O)c(Cn2cccn2)cc2cc(Nc3nc(N4CCC(CN5CCN(c6ccc7c(c6)C(=O)N(C6CCC(=O)NC6=O)C7=O)CC5)CC4)ncc3Cl)ccc21 (stereo not shown) [compound 225, 5-(4-((1-(4-((3-((1H-pyrazol-1-yl)methyl)-1-methyl-2-oxo-1,2-dihydroquinolin-6-yl)amino)-5-chloropyrimidin-2-yl)piperidin-4-yl)methyl)piperazin-1-yl)-2-(2,6-dioxopiperidin-3-yl)isoindoline-1,3-dione] | > 100 | ≥ 100 | 
13 | CNC(=O)COc1cc2cc(Nc3nc(N4CCOC(COc5cccc6c5C(=O)N(C5CCC(=O)NC5=O)C6=O)C4)ncc3Cl)ccc2n(C)c1=O (stereo not shown) [compound 226, 2-((6-((5-chloro-2-(2-(((2-(2,6-dioxopiperidin-3-yl)-1,3-dioxoisoindolin-4-yl)oxy)methyl)morpholino)pyrimidin-4-yl)amino)-1-methyl-2-oxo-1,2-dihydroquinolin-3-yl)oxy)-N-methylacetamide] | 10 to 50 | 50 to 100 | < 50
14 | CNC(=O)COc1cc2cc(Nc3nc(N4CCC(OC5CN(c6ccc7c(c6)C(=O)N(C6CCC(=O)NC6=O)C7=O)C5)CC4)ncc3Cl)ccc2n(C)c1=O (stereo not shown) [compound 227, 2-((6-((5-chloro-2-(4-((1-(2-(2,6-dioxopiperidin-3-yl)-1,3-dioxoisoindolin-5-yl)azetidin-3-yl)oxy)piperidin-1-yl)pyrimidin-4-yl)amino)-1-methyl-2-oxo-1,2-dihydroquinolin-3-yl)oxy)-N-methylacetamide] | > 100 | < 10 | < 50
15 | CNC(=O)COc1cc2cc(Nc3nc(N4CCO[C@H](COc5ccc6c(c5)C(=O)N(C5CCC(=O)NC5=O)C6=O)C4)ncc3Cl)ccc2n(C)c1=O (stereo partly drawn) [compound 228, 2-((6-((5-chloro-2-((2S)-2-(((2-(2,6-dioxopiperidin-3-yl)-1,3-dioxoisoindolin-5-yl)oxy)methyl)morpholino)pyrimidin-4-yl)amino)-1-methyl-2-oxo-1,2-dihydroquinolin-3-yl)oxy)-N-methylacetamide] | > 100 | ≥ 100 | 50 to 70
16 | CNC(=O)COc1cc2cc(Nc3nc(N4CCN(CCN5CCN(c6ccc7c(c6)C(=O)N(C6CCC(=O)NC6=O)C7=O)CC5)CC4)ncc3Cl)ccc2n(C)c1=O (stereo not shown) [compound 229, 2-((6-((5-chloro-2-(4-(2-(4-(2-(2,6-dioxopiperidin-3-yl)-1,3-dioxoisoindolin-5-yl)piperazin-1-yl)ethyl)piperazin-1-yl)pyrimidin-4-yl)amino)-1-methyl-2-oxo-1,2-dihydroquinolin-3-yl)oxy)-N-methylacetamide] | 10 to 50 | 10 to 50 | 50 to 70
17 | CNC(=O)COc1cc2cc(Nc3nc(N4CCN(CCCN5CCN(c6ccc7c(c6)C(=O)N(C6CCC(=O)NC6=O)C7=O)CC5)CC4)ncc3Cl)ccc2n(C)c1=O (stereo not shown) [compound 230, 2-((6-((5-chloro-2-(4-(3-(4-(2-(2,6-dioxopiperidin-3-yl)-1,3-dioxoisoindolin-5-yl)piperazin-1-yl)propyl)piperazin-1-yl)pyrimidin-4-yl)amino)-1-methyl-2-oxo-1,2-dihydroquinolin-3-yl)oxy)-N-methylacetamide] | < 10 | 10 to 50 | < 50
18 | CNC(=O)COc1cc2cc(Nc3nc(N4CCN(C)C(COc5cccc6c5C(=O)N(C5CCC(=O)NC5=O)C6=O)C4)ncc3Cl)ccc2n(C)c1=O (stereo not shown) [compound 231, 2-((6-((5-chloro-2-(3-(((2-(2,6-dioxopiperidin-3-yl)-1,3-dioxoisoindolin-4-yl)oxy)methyl)-4-methylpiperazin-1-yl)pyrimidin-4-yl)amino)-1-methyl-2-oxo-1,2-dihydroquinolin-3-yl)oxy)-N-methylacetamide] | 50 to 100 | ≥ 100 | 
